Assay results taken from patent US20150105252A1, “SUBSTITUTED PYRAZOLES AS HERBICIDES” (E I DU PONT DE NEMOURS AND COMPANY, priority 2013, published 2015).

What was measured:
Assay in all cases: Test C postemergence
[1] = system: pigweed; assay type: in vivo, Amaranthus retroflexus; settings: for Pigweed plant response rating / Plant response rating, Pigweed: postemergence; for Pigweed plant response rating: 62 g ai/ha, scale 0 to 100
In short: (§1)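 Herbicidal effect is expressed as percent visual control (0–100) judged against untreated plants 13 to 15 days after treatment in the greenhouse. Preemergence pots contained seeds in a soil–sand blend; postemergence plants, 2–18 cm tall, grew in peat-based planting medium.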

[2] = system: wheat; assay type: in vivo, Triticum aestivum; settings: for Plant response rating, Wheat / Wheat plant response rating: postemergence; for Plant response rating, Wheat: 250 g ai/ha, scale 0 to 100 (0 no effect, 100 complete control); for Wheat plant response rating: scale 0 to 100
In short: as §1

[3] = system: ragweed; assay type: in vivo, Ambrosia elation; settings: for Plant response rating, Ragweed: postemergence
In short: as §1

[4] = system: foxtail, giant; assay type: in vivo, Setaria faberii; settings: for Plant response rating (scale of 0 to 100 where 0 is no effect and 100 is complete control), Foxtail, Giant: Postemergence, 31 g ai/ha, visually evaluated after 13 to 15 days; for Foxtail, Giant plant response rating / Plant response rating, Foxtail, Giant: postemergence; for Foxtail, Giant plant response rating: 62 g ai/ha, scale 0 to 100
In short: as §1

[5] = system: galium; assay type: in vivo, Galium aparine; settings: for Plant response rating (scale of 0 to 100 where 0 is no effect and 100 is complete control), Galium: Postemergence, 31 g ai/ha, visually evaluated after 13 to 15 days; for Galium plant response rating / Plant response rating, Galium: postemergence; for Galium plant response rating: 62 g ai/ha, scale 0 to 100
In short: as §1

[6] = system: oilseed rape; assay type: in vivo, Brassica napus; settings: for Oilseed Rape plant response rating / Plant response rating, Oilseed Rape: postemergence; for Oilseed Rape plant response rating: 62 g ai/ha, scale 0 to 100
In short: as §1

[7] = system: lambsquarters; assay type: in vivo, Chenopodium album; settings: for Plant response rating (scale of 0 to 100 where 0 is no effect and 100 is complete control), Lambsquarters: Postemergence, 31 g ai/ha, visually evaluated after 13 to 15 days; for Lambsquarters plant response rating / Plant response rating, Lambsquarters: postemergence; for Lambsquarters plant response rating: 62 g ai/ha, scale 0 to 100
In short: as §1

[8] = system: ryegrass, Italian; assay type: in vivo, Lolium multiflorum; settings: for Plant response rating, Ryegrass, Italian: postemergence
In short: as §1

[9] = system: corn; assay type: in vivo, Zea mays; settings: for Plant response rating (scale of 0 to 100 where 0 is no effect and 100 is complete control), Corn: Postemergence, 31 g ai/ha, visually evaluated after 13 to 15 days; for Corn plant response rating / Plant response rating, Corn: postemergence; for Corn plant response rating: 62 g ai/ha, scale 0 to 100
In short: as §1

[10] = system: waterhemp; assay type: in vivo, Amaranthus rudis; settings: for Plant response rating, Waterhemp / Waterhemp plant response rating: postemergence; for Plant response rating, Waterhemp: 250 g ai/ha, scale 0 to 100 (0 no effect, 100 complete control); for Waterhemp plant response rating: scale 0 to 100
In short: as §1

[11] = system: nutsedge, yellow; assay type: in vivo, Cyperus esculentus; settings: for Plant response rating (scale of 0 to 100 where 0 is no effect and 100 is complete control), Nutsedge, Yellow: Postemergence, 31 g ai/ha, visually evaluated after 13 to 15 days; for Nutsedge, Yellow plant response rating / Plant response rating, Nutsedge, Yellow: postemergence; for Nutsedge, Yellow plant response rating: 62 g ai/ha, scale 0 to 100
In short: as §1

[12] = system: kochia; assay type: in vivo, Kochia scoparia; settings: for Plant response rating (scale of 0 to 100 where 0 is no effect and 100 is complete control), Kochia: Postemergence, 31 g ai/ha, visually evaluated after 13 to 15 days; for Kochia plant response rating / Plant response rating, Kochia: postemergence; for Kochia plant response rating: 62 g ai/ha, scale 0 to 100
In short: as §1

[13] = system: barnyardgrass; assay type: in vivo, Echinochloa crus-galli; settings: for Plant response rating (scale of 0 to 100 where 0 is no effect and 100 is complete control), Barnyardgrass: Postemergence, 31 g ai/ha, visually evaluated after 13 to 15 days; for Barnyardgrass plant response rating / Plant response rating, Barnyardgrass: postemergence; for Barnyardgrass plant response rating: 62 g ai/ha, scale 0 to 100
In short: as §1

[14] = system: soybean; assay type: in vivo, Glycine max; settings: for Plant response rating, Soybean / Soybean plant response rating: postemergence; for Plant response rating, Soybean: 250 g ai/ha, scale 0 to 100 (0 no effect, 100 complete control); for Soybean plant response rating: 125 g ai/ha, scale 0 to 100, 0 no effect, 100 complete control
In short: as §1

[15] = system: oat, wild; assay type: in vivo, Avena fatua; settings: for Plant response rating (scale of 0 to 100 where 0 is no effect and 100 is complete control), Oat, Wild: Postemergence, 31 g ai/ha, visually evaluated after 13 to 15 days; for Oat, Wild plant response rating / Plant response rating, Oat, Wild: postemergence; for Oat, Wild plant response rating: 62 g ai/ha, scale 0 to 100
In short: as §1

[16] = Postemergence, 31 g ai/ha, visually evaluated after 13 to 15 days
[17] = 250 g ai/ha, scale 0 to 100 (0 no effect, 100 complete control)
[18] = 125 g ai/ha, scale 0 to 100, 0 no effect, 100 complete control

Structure (SMILES): CCc1cc(C(=O)NC(C)C)nn1Cc1ccnc(C(F)(F)F)c1 [Compound 139]
- Plant response rating (scale of 0 to 100 where 0 is no effect and 100 is complete control), Pigweed [1, 16]: 30
- Pigweed plant response rating [1]: 40
- Plant response rating, Pigweed [1, 17]: 60
- Plant response rating, Pigweed [1, 18]: 40
- Plant response rating (scale of 0 to 100 where 0 is no effect and 100 is complete control), Wheat [2, 16]: 5
- Plant response rating, Wheat [2]: 25
- Wheat plant response rating [2]: 5
- Plant response rating (scale of 0 to 100 where 0 is no effect and 100 is complete control), Ragweed [3, 16]: 35
- Plant response rating, Ragweed [3, 17]: 25
- Plant response rating, Ragweed [3, 18]: 35
- Plant response rating (scale of 0 to 100 where 0 is no effect and 100 is complete control), Foxtail, Giant [4]: 5
- Foxtail, Giant plant response rating [4]: 5
- Plant response rating, Foxtail, Giant [4, 17]: 65
- Plant response rating, Foxtail, Giant [4, 18]: 10
- Plant response rating (scale of 0 to 100 where 0 is no effect and 100 is complete control), Galium [5]: 50
- Galium plant response rating [5]: 60
- Plant response rating, Galium [5, 17]: 70
- Plant response rating, Galium [5, 18]: 60
- Plant response rating (scale of 0 to 100 where 0 is no effect and 100 is complete control), Oilseed Rape [6, 16]: 20
- Oilseed Rape plant response rating [6]: 45
- Plant response rating, Oilseed Rape [6, 17]: 50
- Plant response rating, Oilseed Rape [6, 18]: 50
- Plant response rating (scale of 0 to 100 where 0 is no effect and 100 is complete control), Lambsquarters [7]: 40
- Lambsquarters plant response rating [7]: 55
- Plant response rating, Lambsquarters [7, 17]: 85
- Plant response rating, Lambsquarters [7, 18]: 70
- Plant response rating (scale of 0 to 100 where 0 is no effect and 100 is complete control), Ryegrass, Italian [8, 16]: 0
- Plant response rating, Ryegrass, Italian [8, 17]: 5
- Plant response rating, Ryegrass, Italian [8, 18]: 10
- Plant response rating (scale of 0 to 100 where 0 is no effect and 100 is complete control), Corn [9]: 5
- Corn plant response rating [9]: 10
- Plant response rating, Corn [9, 17]: 20
- Plant response rating, Corn [9, 18]: 15
- Plant response rating (scale of 0 to 100 where 0 is no effect and 100 is complete control), Waterhemp [10, 16]: 30
- Plant response rating, Waterhemp [10]: 65
- Waterhemp plant response rating [10]: 55
- Plant response rating (scale of 0 to 100 where 0 is no effect and 100 is complete control), Nutsedge, Yellow [11]: 5
- Nutsedge, Yellow plant response rating [11]: 5
- Plant response rating, Nutsedge, Yellow [11, 17]: 5
- Plant response rating, Nutsedge, Yellow [11, 18]: 5
- Plant response rating (scale of 0 to 100 where 0 is no effect and 100 is complete control), Kochia [12]: 60
- Kochia plant response rating [12]: 75
- Plant response rating, Kochia [12, 17]: 85
- Plant response rating, Kochia [12, 18]: 85
- Plant response rating (scale of 0 to 100 where 0 is no effect and 100 is complete control), Barnyardgrass [13]: 10
- Barnyardgrass plant response rating [13]: 10
- Plant response rating, Barnyardgrass [13, 17]: 20
- Plant response rating, Barnyardgrass [13, 18]: 10
- Plant response rating (scale of 0 to 100 where 0 is no effect and 100 is complete control), Soybean [14, 16]: 15
- Plant response rating, Soybean [14]: 85
- Soybean plant response rating [14]: 55
- Plant response rating (scale of 0 to 100 where 0 is no effect and 100 is complete control), Oat, Wild [15]: 10
- Oat, Wild plant response rating [15]: 10
- Plant response rating, Oat, Wild [15, 17]: 40
- Plant response rating, Oat, Wild [15, 18]: 30

Structure (SMILES): CCCc1cc(C(=O)NOCC)nn1Cc1ccnc(C(F)(F)F)c1 [Compound 185]
- Pigweed plant response rating [1]: 50
- Plant response rating, Pigweed [1, 17]: 85
- Plant response rating, Pigweed [1, 18]: 75
- Plant response rating, Wheat [2]: 10
- Wheat plant response rating [2]: 5
- Plant response rating, Ragweed [3, 17]: 30
- Plant response rating, Ragweed [3, 18]: 40
- Plant response rating (scale of 0 to 100 where 0 is no effect and 100 is complete control), Foxtail, Giant [4]: 5
- Foxtail, Giant plant response rating [4]: 5
- Plant response rating, Foxtail, Giant [4, 17]: 5
- Plant response rating, Foxtail, Giant [4, 18]: 10
- Plant response rating (scale of 0 to 100 where 0 is no effect and 100 is complete control), Galium [5]: 40
- Galium plant response rating [5]: 40
- Plant response rating, Galium [5, 17]: 70
- Plant response rating, Galium [5, 18]: 45
- Oilseed Rape plant response rating [6]: 40
- Plant response rating, Oilseed Rape [6, 17]: 70
- Plant response rating, Oilseed Rape [6, 18]: 50
- Plant response rating (scale of 0 to 100 where 0 is no effect and 100 is complete control), Lambsquarters [7]: 70
- Lambsquarters plant response rating [7]: 35
- Plant response rating, Lambsquarters [7, 17]: 65
- Plant response rating, Lambsquarters [7, 18]: 45
- Plant response rating, Ryegrass, Italian [8, 17]: 0
- Plant response rating, Ryegrass, Italian [8, 18]: 0
- Plant response rating (scale of 0 to 100 where 0 is no effect and 100 is complete control), Corn [9]: 5
- Corn plant response rating [9]: 5
- Plant response rating, Corn [9, 17]: 65
- Plant response rating, Corn [9, 18]: 5
- Plant response rating, Waterhemp [10]: 85
- Waterhemp plant response rating [10]: 35
- Plant response rating (scale of 0 to 100 where 0 is no effect and 100 is complete control), Nutsedge, Yellow [11]: 0
- Nutsedge, Yellow plant response rating [11]: 0
- Plant response rating, Nutsedge, Yellow [11, 17]: 10
- Plant response rating, Nutsedge, Yellow [11, 18]: 5
- Plant response rating (scale of 0 to 100 where 0 is no effect and 100 is complete control), Kochia [12]: 50
- Kochia plant response rating [12]: 60
- Plant response rating, Kochia [12, 17]: 80
- Plant response rating, Kochia [12, 18]: 75
- Plant response rating (scale of 0 to 100 where 0 is no effect and 100 is complete control), Barnyardgrass [13]: 0
- Barnyardgrass plant response rating [13]: 0
- Plant response rating, Barnyardgrass [13, 17]: 20
- Plant response rating, Barnyardgrass [13, 18]: 5
- Plant response rating, Soybean [14]: 50
- Soybean plant response rating [14]: 40
- Plant response rating (scale of 0 to 100 where 0 is no effect and 100 is complete control), Oat, Wild [15]: 5
- Oat, Wild plant response rating [15]: 10
- Plant response rating, Oat, Wild [15, 17]: 15
- Plant response rating, Oat, Wild [15, 18]: 10
